In PMC7346217, “Insight of Polyphenol Oxidase Enzyme Inhibition and Total Polyphenol Recovery from Cocoa Beans” (Antioxidants, 2020) one finds Km data, which are given here for three compounds.

The test system of this experiment is T1, polyphenol oxidase (PPO) from cocoa beans.
T1 construct: native; isoenzyme not identified
Nature of the experiment: spectrophotometric oxidation ([…] nm), Michaelis-Menten nonlinear regression. It counts as biochemical, Theobroma cacao. Particulars: crude extract of non-treated beans; McIlvaine buffer pH 6.5; 35 °C; substrate 5-200 mM.
Consider `Oc1cc(O)c2c(c1)O[C@H](c1ccc(O)c(O)c1)[C@@H](O)C2` [(+)-catechin], for which the Km – broadly, the substrate concentration at which the rate is half of its maximum – came out at 1.45 ± 0.35 mM.
On to `Oc1cc(O)c2c(c1)O[C@H](c1ccc(O)c(O)c1)[C@H](O)C2` [(−)-epicatechin], for which the Km stood at 1.26 ± 0.37 mM.
Consider `Oc1ccccc1O` [catechol], for which the Km was found to be 0.61 ± 0.12 mM.
